Where “and” joins values, the source holds several entries; their conditions need not be identical. Equal values may be shown once. Read-outs that look alike come from different tables or passages of the source.
Tests used:
[1] = biological target: T1, NIS (Rattus norvegicus, UniProt Q63008); assay: NIS-inhibition assay (iodide uptake, Sandell–Kolthoff reaction) on FRTL-5; type: cell-based; conditions: mean ± SD, ≥ 3 independent experiments; 2 h exposure; SK reaction
T1 construct: the endogenously NIS-expressing rat FRTL-5 cell line; host or cells: FRTL-5 (CVCL_0265)
T1 sequence (Q63008 1-618): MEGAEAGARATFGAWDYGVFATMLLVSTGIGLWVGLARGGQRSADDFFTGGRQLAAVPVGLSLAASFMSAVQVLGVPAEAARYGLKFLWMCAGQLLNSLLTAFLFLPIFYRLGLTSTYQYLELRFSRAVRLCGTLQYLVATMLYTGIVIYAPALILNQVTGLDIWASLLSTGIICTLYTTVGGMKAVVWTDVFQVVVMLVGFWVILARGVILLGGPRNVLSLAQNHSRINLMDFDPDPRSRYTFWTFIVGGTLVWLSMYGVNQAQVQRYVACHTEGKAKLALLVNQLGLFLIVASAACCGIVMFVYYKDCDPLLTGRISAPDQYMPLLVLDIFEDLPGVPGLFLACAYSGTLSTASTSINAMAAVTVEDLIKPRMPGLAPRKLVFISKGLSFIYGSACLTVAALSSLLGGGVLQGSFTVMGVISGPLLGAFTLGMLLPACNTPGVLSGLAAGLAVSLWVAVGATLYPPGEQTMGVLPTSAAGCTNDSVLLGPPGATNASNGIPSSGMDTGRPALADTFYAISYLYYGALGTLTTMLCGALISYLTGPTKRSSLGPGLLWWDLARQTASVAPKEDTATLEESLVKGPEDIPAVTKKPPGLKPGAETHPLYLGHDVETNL

[2] = biological target: T2, human NIS (Homo sapiens, UniProt Q92911)
T2 sequence (Q92911 1-643): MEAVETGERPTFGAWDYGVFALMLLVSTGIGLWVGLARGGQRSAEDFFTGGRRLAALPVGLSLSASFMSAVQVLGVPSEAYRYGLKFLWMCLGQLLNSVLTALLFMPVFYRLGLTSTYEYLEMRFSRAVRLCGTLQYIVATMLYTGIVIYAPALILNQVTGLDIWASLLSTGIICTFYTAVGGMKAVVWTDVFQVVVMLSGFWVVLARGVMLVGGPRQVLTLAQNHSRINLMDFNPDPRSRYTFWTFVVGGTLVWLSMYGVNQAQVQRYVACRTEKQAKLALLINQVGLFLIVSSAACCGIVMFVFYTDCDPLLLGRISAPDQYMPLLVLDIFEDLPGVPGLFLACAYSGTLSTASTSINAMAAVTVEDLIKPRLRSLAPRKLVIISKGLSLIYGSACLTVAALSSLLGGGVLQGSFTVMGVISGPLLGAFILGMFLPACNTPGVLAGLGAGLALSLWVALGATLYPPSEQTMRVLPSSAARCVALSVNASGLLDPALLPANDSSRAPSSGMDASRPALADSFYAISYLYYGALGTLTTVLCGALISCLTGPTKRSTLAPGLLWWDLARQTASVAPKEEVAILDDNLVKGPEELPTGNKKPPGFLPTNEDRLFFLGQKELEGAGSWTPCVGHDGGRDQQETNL

[3] = design: method as in PubChem https://pubchem.ncbi.nlm.nih.gov/; conditions: ref PubChem https://pubchem.ncbi.nlm.nih.gov/; cited from earlier work
[4] = design: method as in PubChem https://pubchem.ncbi.nlm.nih.gov/; conditions: ref PubChem https://pubchem.ncbi.nlm.nih.gov/; cited from earlier work; remark: listed apart in the source
[5] = biological target: T1, NIS; conditions: FRTL-5, SK, read-out: Data from literature NIS IC50, cited from earlier work
[6] = in vitro; conditions: human, HEK293T NIS C cells
[7] = in vitro; conditions: rat, FRTL-5 cells
[8] = biological target: T2, human NIS; assay: Biotransformation (BTS, rat S9)-augmented NIS-inhibition assay, HEK293T NIS02; conditions: for effect of fully active BTS (W/S9, W/cof) on NIS inhibition versus control setups: two-way ANOVA, p < 0.05
[9] = biological target: T2, human NIS; assay: NIS-inhibition assay (iodide uptake, Sandell–Kolthoff reaction) on HEK293T NIS 02; type: cell-based; design: host or cells: HEK293T (lentiviral transduction, puromycin selection, GFP sorting; lines NIS 02 and NIS C)
[10] = biological target: T2, human NIS; assay: NIS-inhibition assay (iodide uptake, Sandell–Kolthoff reaction) on HEK293T NIS C; type: cell-based; design: host or cells: HEK293T (lentiviral transduction, puromycin selection, GFP sorting; lines NIS 02 and NIS C)
[11] = biological target: T2, human NIS; design: host or cells: HEK293T (lentiviral transduction, puromycin selection, GFP sorting; lines NIS 02 and NIS C); conditions: cited from earlier work; for IC20: read-out: Data from literature NIS IC20
[12] = biological target: T2, human NIS; design: method as in Dong et al., 2019; conditions: MCF7hNIS, SK, ref Dong et al., 2019, cited from earlier work
[13] = biological target: T1, NIS; conditions: FRTL-5, RAIU, read-out: Data from literature NIS IC50, cited from earlier work
[14] = system: hNIS; design: method as in Concilio et al., 2020; conditions: HeLa transfected with hNIS; RAIU; ref Concilio et al., 2020; read-out: Data from literature NIS IC50; cited from earlier work
[15] = system: whale NIS; design: method as in Concilio et al., 2020; conditions: HeLa transfected with whale NIS; RAIU; ref Concilio et al., 2020; read-out: Data from literature NIS IC50; cited from earlier work
[16] = system: zebrafish NIS; design: method as in Concilio et al., 2020; conditions: HeLa transfected with zebrafish NIS; RAIU; ref Concilio et al., 2020; read-out: Data from literature NIS IC50; cited from earlier work
[17] = ref PubChem https://pubchem.ncbi.nlm.nih.gov/; cited from earlier work
[18] = biological target: T2, human NIS; design: host or cells: HEK293T (lentiviral transduction, puromycin selection, GFP sorting; lines NIS 02 and NIS C); method as in Dong et al., 2019; conditions: hNIS-HEK293T-EPA, SK, ref Dong et al., 2019, cited from earlier work
[19] = in vitro; conditions: human
[20] = system: HEK293T NIS02 cells; assay: Neutral red uptake viability assay, HEK293T NIS02; conditions: 100 µM
[21] = mean ± SD, ≥ 3 independent experiments, 2 h exposure, SK reaction, read-out: NIS IC50 HEK293T NIS 02
[22] = mean ± SD, ≥ 3 independent experiments, 2 h exposure, SK reaction, read-out: NIS IC50 HEK293T NIS C
[23] = hNIS-HEK293T-EPA, RAIU, ref Hallinger et al., 2017
[24] = read-out: Data from literature NIS IC20
[25] = read-out: Data from literature NIS IC50

For `CC(C)(c1ccc(O)cc1)c1ccc(O)cc1` [BPA, Bisphenol A], the IC50 [1] is listed as 302 ± 197 µM, the “effect of fully active BTS (W/S9, W/cof) on NIS inhibition versus control setups” value (“effect … on NIS inhibition versus control setups” for short) [2] is listed as “statistically significant reduction in NIS inhibition” and the “log Kow” value [3] is listed as 3.32. For the same molecule, the “Henry‘s law” value [4] was 4.0x10^-11 atm- m^3/mol, the IC50 ([5]; ref Wu et al., 2016) was 112 µM and the IC20 at 2 h [6] was 181 µM. For the same molecule, the IC20 at 2 h [7] was 364 µM, the “increase of IC20 by preincubation in fully active BTS setup compared to the denatured BTS setup” value ([8]; W/S9, W/cof vs D S9, W/cof) was roughly 6.3 fold and the IC20 ([8]; read-out: NIS inhibition IC20 SM, standard method without preincubation, run in parallel, three independent experiments) was 4.7 ± 6 µM. For the same molecule, the IC50 [9, 21] was 111 ± 75 µM, the IC50 [10, 22] was 309 ± 2.5 µM and the IC20 [11, 23] was 35.5 µM. For the same molecule, the IC20 ([11]; hNIS-HEK293T-EPA, RAIU, ref US-EPA, 2024) was 24.3 ± 21.6 µM, the “Data from literature NIS IC50” value ([11]; hNIS-HEK293T-EPA, RAIU, ref Wang et al., 2018) was “n.e” and the IC20 ([11]; hNIS-HEK293T-EPA, RAIU, ref Wang et al., 2019) was 19.5 µM.
For `[O-][Cl+3]([O-])([O-])O` [PCL, Perchlorate, reference compound], the IC50 [1] is listed as 5.1 ± 4.6 µM, the IC50 ([5]; ref Waltz et al., 2010) is listed as 0.1 µM and the IC50 ([5]; ref Wu et al., 2016) is listed as 0.3 µM. The IC20 [12, 24] was 0.2 µM, the IC50 [12, 25] was 0.5 µM and the IC50 ([13]; ref Buckalew et al., 2020) was 0.2 µM. The IC50 ([13]; ref Waltz et al., 2010) was 0.14 µM, the IC50 [14] was 1.6 µM and 1.56 µM and the IC50 [15] was 4.6 µM and 4.59 µM. For the same molecule, the IC50 [16] was 0.08 µM, the solubility in water [17] was greater than 2000 mg/mL and the “effect … on NIS inhibition versus control setups” value [8] was “no significant differences were observed”. For the same molecule, the IC50 [9, 21] was 1.65 ± 0.57 µM, the IC50 [10, 22] was 14.9 ± 8.3 µM and the IC20 ([11]; hNIS-HEK293T-EPA, RAIU, ref Dong et al., 2019) was 0.1 µM. For the same molecule, the IC50 ([11]; hNIS-HEK293T-EPA, RAIU, ref Dong et al., 2019, read-out: Data from literature NIS IC50) was 0.53 µM, the IC20 [11, 23] was 0.2 µM and the IC20 [18, 24] was 0.2 µM. The IC50 [18, 25] was 0.8 µM.
For `Oc1cc(Cl)ccc1Oc1ccc(Cl)cc1Cl` [TCS, Triclosan], the IC50 [1] is listed as 39.3 ± 18.9 µM, the IC50 ([5]; ref Wu et al., 2016) is listed as 21.3 µM and the IC20 at 2 h [19] is listed as 45.9 µM. The “cytotoxicity in the standard NIS assay (NR and CTG)” value [20] was “cytotoxic”, the “increase of IC20 by preincubation in fully active BTS setup compared to the denatured BTS setup” value [8] was “approximately 5 fold” and the IC20 ([8]; read-out: NIS inhibition IC20 D S9, W/cof, 5 h preincubation with denatured S9 and cofactors, three independent experiments) was 1.07 ± 0.65 µM. For the same molecule, the IC20 ([8]; read-out: NIS inhibition IC20 SM) was 1.78 ± 1.12 µM, the IC20 ([8]; read-out: NIS inhibition IC20 W/O S9, W/cof, 5 h preincubation without S9 fraction, with all cofactors, three independent experiments) was 1.02 ± 0.82 µM and the “effect … on NIS inhibition versus control setups” value [8] was “statistically significant reduction in NIS inhibition”. The IC50 ([9]; NIS IC50 HEK293T NIS 02) was 18.5 ± 9.9 µM, the IC50 [10] was 34.8 ± 23.5 µM and the IC20 [11] was 2.6 µM.
